Holding throughout (assay): DTP human tumour cell line panel, 48 h
The test system of assay [1] is ACHN renal.
The subject of assay [2] is MCF7 breast.
Assay [3] relates to EKVX NSCLC.
In assay [4] the test system is A498 renal.
Assay [5] relates to NCI-H460 lung.
Assay [6] concerns RPMI-8226 leukemia.
In assay [7] the test system is SK-MEL-2 melanoma.
The test system of assay [8] is UACC-257 melanoma.
Assay [9] concerns SK-MEL-28 melanoma.
Assay [10] concerns UACC-62 melanoma.

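Step 1: Grow cells in 96-well plates. Step 2: Expose to compound for 48 hours at 5 concentrations. Step 3: Interpolate endpoints linearly; if unreached, use highest concentration. Abbreviation: GI50, concentration required for 50% inhibition of growth. Definition used: TGI = concentration required for complete inhibition of growth.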

From PubChem BioAssay (NCI) come the findings set out here.

Usually TGI stands for the concentration at which net growth stops. For orientation: GI50 means the concentration that inhibits growth by half.

As for `O=C(O)C(Cc1c[nH]c2ccccc12)N1C(=O)c2ccccc2C1=O` (centres undefined), the TGI in assay [1], in assay [2], in [3], in assay [4], in assay [5] and in assay [6] was above 100 µM in each case. Moreover, the TGI in assay [7], in assay [8], in assay [9] and in assay [10] was above 100 µM each time.
With `CNc1ccc(N=Nc2cccc3ncccc23)cc1`, the GI50 in [1] was 20.8 µM; in [2], 0.0261 µM; in [3], 3.62 µM; in assay [6] it was 7.43 µM; in assay [7] it was above 100 µM; in [8] it was above 92.8 µM. The GI50 in assay [9] was above 100 µM; in assay [10] it was 13.1 µM. In addition, the TGI in assay [1] is above 100 µM; in assay [2] it was above 100 µM; in [3], above 100 µM; in assay [4], above 68.4 µM; in assay [6], above 65.6 µM; in assay [7], above 100 µM. Besides, the TGI in assay [8], in assay [9] and in assay [10] was above 100 µM in each case.
With `CC(=O)Nc1ccc2c(c1)CN1C(=O)c3ccccc3C1=N2`, the GI50 in [1], in [2], in assay [3], in [4], in assay [5] and in assay [6] was above 100 µM throughout. In addition, the GI50 in assay [8], in [9] and in assay [10] was above 100 µM in each case. In addition, the TGI in assay [1], in assay [2], in assay [3], in [4], in assay [5] and in [6] was above 100 µM each time. Further, the TGI in [8], in assay [9] and in [10] was above 100 µM in each case.
For the compound `O=C1Nc2ccc(Br)cc2C1=Nc1ccc(Cl)cc1`, the TGI is 39.1 µM in assay [1]; 27.1 µM in [2]; 47.1 µM in assay [3]; above 100 µM in [4]; above 100 µM in [5]; 26.5 µM in [6]. Besides, the TGI in assay [8] came to 79.1 µM; in assay [9] it was 82.5 µM; in assay [10] it was 12.6 µM.
Regarding `Cc1cc(C(=O)Nc2cc(Nc3ncccc3-c3ncnc4nc[nH]c34)ccc2F)cc(C(C)(C)C#N)c1`, the GI50 was 1.22 µM in [1]; 5.07 µM in assay [2]; 4.03 µM in assay [3]; 0.0748 µM in [4]; 1.98 µM in assay [5]; 2.01 µM in assay [6]. The GI50 in assay [7] was 0.0866 µM; in assay [8], 0.0867 µM; in [9] it was 0.0402 µM. The TGI in assay [1] is above 100 µM; in assay [2], above 100 µM; in [3], above 100 µM; in [4] it was 0.491 µM; in assay [5], above 100 µM; in assay [6] it was 53.5 µM. Besides, the TGI in assay [7] was 2.04 µM; in [8], above 100 µM; in [9] it was above 100 µM.
On to `CC[C@H](C)[C@H](NC(=O)N[C@@H](C)c1ccccc1)C(=O)N(C)[C@H](C[C@@H](OC(C)=O)c1nc(C(=O)N[C@@H](Cc2ccccc2)C[C@H](C)C(=O)OC)cs1)C(C)C`, for which the GI50 is 29.3 µM in assay [1]; 7.28 µM in [2]; 37.5 µM in assay [3]; 26.6 µM in assay [5]; 8.74 µM in assay [6]; 18.3 µM in [7]. Further, the values for the GI50 in assay [8], in assay [9] and in [10] were above 100 µM, 47 µM and 6.96 µM, respectively. Also, the TGI in assay [1] is above 100 µM; in assay [2], above 100 µM; in assay [3] it was above 100 µM; in [5], 95.5 µM; in assay [6], above 100 µM; in [7], above 100 µM. In addition, the TGI in [8], in assay [9] and in [10] was above 100 µM each time.
Regarding `Cc1ccc(NCCNCC(O)CO)c2c(=O)c3ccccc3sc12` (centres undefined), the GI50 in assay [1] was 1.29 µM; in assay [2], 1.19 µM; in [3], 1.83 µM; in assay [5], 0.776 µM; in [6], 2.48 µM; in assay [7] it was 1.77 µM. In addition, the results for the GI50 in assay [8], in [9] and in assay [10] were 1.87 µM, 1.69 µM and 1.54 µM, respectively. The TGI is 3.07 µM in assay [1]; 2.65 µM in assay [2]; 3.77 µM in assay [3]; 2.43 µM in assay [5]; 6.83 µM in assay [6]; 3.49 µM in [7]. In addition, the TGI is 3.58 µM in assay [8], 3.3 µM in assay [9] and 3.08 µM in [10].
With `N#CC1=C(N)NC(=S)C(C#N)C12Nc1ccccc1S2` (centres undefined), the GI50 is 9.82 µM in [1]; 8.14 µM in assay [2]; 0.793 µM in assay [3]; 16.7 µM in assay [5]; 61.6 µM in assay [6]; 29.3 µM in [7]. For the same compound, the GI50 was 19.6 µM in [8], 24.3 µM in [9] and 18 µM in assay [10]. The TGI in [1] was 29.4 µM; in [2], above 100 µM; in assay [3], 8.04 µM; in assay [5], above 100 µM; in assay [6], above 100 µM; in assay [7] it was 58.1 µM. Besides, the TGI in assay [8] was 35.4 µM; in assay [9] it was 56.7 µM; in assay [10], 33.4 µM.
On to `Nn1nnc2ccccc21`, for which the TGI in assay [1], in [2], in [3], in assay [4], in assay [5] and in [6] was above 100 µM in each case. In addition, the TGI in [8], in assay [9] and in [10] was above 100 µM in each case.
With `O=C(/C(=N/Nc1cn[nH]c(=O)c1Cl)c1ccccc1)c1ccccc1`, the total growth inhibition concentration (TGI) in assay [1] was above 100 µM; in [2], above 100 µM; in assay [3], 83.1 µM; in assay [4] it was 50.4 µM; in assay [6] it was 60.7 µM; in assay [7] it was above 100 µM. The TGI was 80.2 µM in assay [8], above 100 µM in assay [9] and 53.5 µM in [10].
